According to patent publication US11266686B2, “Metal complexes and methods of treatment” (PROCYPRA THERAPEUTICS LLC, priority 2013, dated 2022):

Key:
[1] = Kinetic solubility determination (μDISS Profiler, in situ fiber optic UV); conditions: for dissolved CuATSM as share of the total available in the assay: gluconic acid NCD at the 0.3 hour time point
Description: Solubility assays were performed in 25 mL glass vials. Glass vials (4-mL, capped, VWR) were used to prepare stock solutions. All experiments were conducted using μDISS Profiler™ operated by μDISS Command Software (version 5.0.1.0). MB-8 mini-water bath with built-in stirring device was used to provide stirring during solubility measurements. Temperature during experiments was maintained at 25±2° C., and were performed in duplicate.
An HCl/KCl based buffer at pH 1.2 and a simulated intestinal fluid at pH 6.8 (no pancreatin) were prepared according USP protocols (Vol 35/NF30). […] The concentration measurements are performed directly in the dissolution media, with processed results plotted in real time using the μDISS Profiler™ (Pion) instrument. The Profiler uses an in situ fiber optic-dip probe UV apparatus, with the probe center-positioned in the vial holding the studied compounds and 10-20 mL of media. Interference due to background turbidity was minimized when needed by a spectral second derivative method (Avdeef, A; Tsinman, O. “Miniaturized Rotating Disk Intrinsic Dissolution Rate Measurement: Effects of Buffer Capacity in Comparisons to Traditional Wood's Apparatus”, Pharm. Res., 2008, DOI: 10.1007/s11095-008-96-79-z).
The 2 and 20 mm path length tips were selected for detecting the concentration of CuATSM at pH 1.2 and pH 6.8 respectively. A dry CuATSM powder was dissolved in DMSO resulting a stock solution at known concentration, and then the solution was used to generate standard curves by serial addition. Standard curves were determined from the area under the second derivative curve in wavelength range 340-366 nm (for pH 1.2) and 445-465 nm (for pH 6.8) so as to avoid over saturation of the UV signal.
The solubility of CuATSM was determined in pH 6.8 buffer. Samples of CuATSM were introduced into pH 6.8 buffer as powders, thus, unlike for standards, the final solutions contained no solvents in the background. The 20 mm (at pH 6.8) path length tip was selected for detecting the concentration of CuATSM in solution. All experiments were performed at room temperature 25±3° C.
The 20 mm pathlength tip was selected for detecting the concentration of the compounds in pH 6.8 buffer solution. All experiments were performed at room temperature, 25±3° C., and were performed in duplicate.
Kinetic solubility determination of CuATSM:saccharin (1:2). CuATSM:saccharin (1:2) was prepared according to the methods of EXAMPLE 3. The kinetic solubility profile of CuATSM:saccharin (1:2) was determined in pH 6.8 buffer similarly to the methods given in EXAMPLE 13 and EXAMPLE 14. Standard curves of CuATSM:saccharin (1:2) and saccharin were generated and compared to the standard curves of CuATSM. Saccharin concentrations in the buffer solution were determined from the saccharin standard curves in the 292-310 nm wavelength region, using the Zero Intercept Method so as to minimize spectral interference from CuATSM. […] The upper concentration limit of the assay was approximately 0.12 mg/mL of CuATSM:saccharin (1:2), resulting in upper concentrations limits for CuATSM and for saccharin in solution approximately 60 μg/mL each. All experiments were performed at about 25±3° C., and were performed in duplicate.

[2] = Pharmacokinetics in mice after oral administration, plasma and brain by LC/MS/MS; conditions: 30 mg/kg CuXTSM API oral; for Brain AUC0-24h / Brain AUC0-inf / Brain Cmax / Brain Tmax / Brain t½ (number of time points): mouse brain; for Brain t½ (number of time points) / Plasma t½ (number of time points): bracket = number of time points; for Plasma Ke / Plasma MRT / Plasma AUC0-24h / Plasma AUC0-inf / Plasma Cmax / Plasma Tmax / Plasma t½ (number of time points): mouse plasma; for Plasma AUC0-24h / Plasma AUC0-inf / Plasma Cmax / Plasma Tmax: CuATSM in SSV, NCDs in water; for Brain:plasma-ratio (AUC-based) / Brain:plasma-ratio (Cmax-based): mouse
Description: CuATSM was suspended in “Standard Suspension Vehicle” (SSV), consisting of 0.9% (w/v) NaCl, 0.5% (w/v) sodium carboxymethylcellulose, 0.5% (v/v) benzyl alcohol, and 0.4% (v/v) Tween 80 in deionized water. All other test compounds were suspended in sterile water. Samples were prepared by adding one of the compounds to the liquid vehicle (water or SSV) in a vial and then vortexing the mixture for 3 min with a stir bar inside. If the powdered sample was not completely wetted or not completely suspended, the sample was vortexed for another minute. If wetting was still incomplete, the vial was sonicated until a fully wetted suspension was obtained. Between doses, the sample was stirred on medium speed and then vortexed for an additional 20 s immediately before the next dose was removed from the vial. All dosing was completed from a single preparation of the suspension within 60 min of adding the compound to water or SSV.
Mice were deprived of pelleted food overnight, during which time 10% dextrose, as Dextroput, was provided in tap water, after which the test items were administrated orally by gavage in water or SSV. […] The blood samples were kept on ice after sampling and centrifuged at +4° C., 1800×g for 5 min to prepare plasma. Plasma samples were extracted and transferred into pre-labelled Eppendorf test tubes (50 μl exact in one vial, and the remaining in a second vial) and frozen at −20° C. The samples were transported on dry ice to the analysis site. Following blood sampling, mice were euthanized by cervical dislocation, and then brains were collected through opened skulls. The brains were weighed and placed in test tubes and placed on water ice. Phosphate-buffered saline (PBS, pH 7.4), 4 ml per 1 g of brain tissue, was added to the test tube and brains were homogenized by using Ultra-Turrax T25 homogenizer/S25N-10G (Setting 2, 9500 rpm, approximately 10 s). The homogenate was frozen at −20° C. immediately after homogenization. The samples were transported on dry ice to the analysis site.
Dosed mice were studied in triplicate for each of the seven time points, totaling 21 mice dosed for each studied compound. Plasma samples and brain homogenates from four untreated animals were also obtained. The plasma samples were thawed at room temperature (RT), mixed with 2-fold volume of acetonitrile, shaken and centrifuged for 10 min at 13 000×g (Heraeus Pico 17 centrifuge), after which supernatants were transferred into glass vials. The brain homogenate samples were mixed with 2-fold volume of acetonitrile:methanol, shaken, ultrasonicated for 20 min, and centrifuged for 10 min at 13 000×g (Heraeus Pico 17 centrifuge), after which supernatants were transferred into glass vials. […] Quality control (QC) samples were prepared for concentrations 10, 100 and 1000 ng/ml in plasma or brain homogenates.
Elution was with gradient of 0.5% formic acid/acetonitrile (99:1) increased step-wise to (5:95).
The pharmacokinetic parameters for study compounds in plasma and brain were calculated using standard non-compartmental methods. The elimination phase half-life (t½) was calculated by least-squares regression analysis of the terminal linear part of the log concentration-time curve. […] The maximum concentration (Cmax) and the time to Cmax (Tmax) were derived directly from the concentration data. Mean Residence Time, MRT, and elimination rate constant, Ke, were also calculated from the concentration vs. time data of plasma samples.

[3] = pH 6.8 buffer, powder added, 25±3° C., 12-hour monitoring

Compound	Brain AUC0-24h [2] [ng·min/g]	Brain AUC0-inf [2] [ng·min/g]	Brain Cmax [2] [ng/g]	Brain Tmax [2] [h]	Brain t½ (number of time points) [2]	Plasma Ke [2] [min⁻¹]	Plasma MRT [2] [h]	Plasma AUC0-24h [2]	Plasma AUC0-inf [2] [ng·min/mL]	Plasma Cmax [2] [ng/mL]	Plasma Tmax [2] [h]	Plasma t½ (number of time points) [2]	Brain:plasma-ratio (AUC-based) [2]	Brain:plasma-ratio (Cmax-based) [2]	time to maximum concentration of CuATSM ([1]; pH 6.8 buffer, 25±3° C.) [h]	maximum concentration of CuATSM in solution [1, 3]	dissolved CuATSM as share of the total available in the assay ([1]; pH 6.8 buffer)	also measured
CNC1=NN=C(C)C(C)=NN=C(NC)[S][Cu][S]1 [CuATSM, Copper(II) diacetyl-di(N4-methyl)thiosemicarbazone, reference compound]	10944	13843	28.4	1	199 (3) min	0.0035	5.25	9637 ng·min/mL	9698	22.2	2	196 (4) min	1.1	1.3				concentration of CuATSM at the end of the 12-hour monitoring period ([1]; pH 6.8): remained at that concentration; time to maximum concentration of CuATSM ([1]; pH 6.8): approximately 8 hours
CNC1=NN=C(C)C(C)=NN=C(NC)[S][Cu][S]1.O=C1NS(=O)(=O)c2ccccc21.O=C1NS(=O)(=O)c2ccccc21 [CuATSM:saccharin (1:2)]	30643	30979	71.8	0.25	202 (2) min	0.0040	6.25	20 333 min*ng/mL	20436	29.0	2	170 (2) min	1.5	2.5	≤ 0.8	approximately 2 μg/mL	less than 1%	time to maximum concentration of saccharin ([1]; pH 6.8 buffer): ≤ 0.3 h; concentration of CuATSM at the end of the 12-hour monitoring period ([1]; pH 6.8 buffer, 25±3° C.): approximately 1 μg/mL; maximum concentration of saccharin in solution ([1]; pH 6.8 buffer, unchanged over the 12-hour monitoring period): approximately 60 μg/mL
CNC1=NN=C(C)C(C)=NN=C(NC)[S][Cu][S]1.O=C(O)C(O)C(O)C(O)C(O)CO.O=C(O)C(O)C(O)C(O)C(O)CO [CuATSM:gluconic acid (1:2)]	71554	73544	133	4	261 (3) min	0.0028	5.95	25 163 min*ng/mL	25696	36.5	4	252 (3) min	2.8	3.6	≤ 0.11	approximately 3 μg/mL	less than 1%	solubility in DMSO (did not fully dissolve at) ([1]; DMSO stock solution): < 400 µg/mL; time to maximum concentration of CuATSM ([1]; pH 1.2 KCl/HCl buffer): ≤ 0.3 h; maximum concentration of CuATSM in solution ([1]; pH 1.2 KCl/HCl buffer, 3-hour monitoring): approximately 195 μg/mL; dissolved CuATSM as share of the total amount of CuATSM in the sample ([1]; pH 1.2 buffer, within 0.3 hours, kept for 3 hours): 33%; change in the chemical identity of CuATSM after dissolution (UV spectral shifts) ([1]; pH 6.8 buffer, 450 nm shifted to 415 nm within the first 0.3 hours): reaction or decomposition
